Source: US8507199B2, “Multi-color time resolved fluorophores based on macrocyclic lanthanide complexes” (Lumiphore, Inc., priority 2007, dated 2013)
Values joined by “and” are separate entries in the source; they are usually repeats but may differ in a detail not shown here. Equal entries are not always repeated.

Key:
[1] = Luminescence lifetime decay (biexponential fit) of FITC-Tb-BH22IAM conjugate; assay type: physicochemical; details: Tb-coordinated conjugate, excitation at BH22IAM absorption (~340 nm), emission at 520 nm
Description: A short lifetime corresponding to the direct excitation of fluorescein (3.92 nsec) and a long lifetime corresponding to excitation of BH22IAM and energy transfer to fluorescein (524 nsec).
In another exemplary embodiment, the compounds of the invention emit light at an emission wavelength of the fluorophore attached to the metal chelate through the acceptor-linker. […] For example, compound 3, when coordinated to terbium and excited at a BH22IAM absorption wavelength (˜340 nm), the metal chelate emits at 520 nm, the characteristic wavelength of fluorescein with a lifetime of 524 nsec. The new lifetime is over 100-fold longer than the lifetime for a fluorescein solution that is directly excited (<5 nsec).
The 524 nsec of the conjugated fluorescein is acquired through direct excitation of the Tb-BH22IAM complex at 340 nm, which normally has a very long lifetime (2.6 msec), followed by energy transfer to the conjugated fluorescein and emission at the characteristic wavelength for fluorescein (520 nm).

[2] = Steady-state absorption and emission spectra; assay type: physicochemical
Description: FIG. 8 is a steady-state absorption spectrum of FITC-BH22IAM conjugate.

SMILES: O=C(O)c1cc(NC(=S)NCCCCC2CN3CCNC(=O)c4cccc(c4O)C(=O)NCCN(CCNC(=O)c4cccc(c4O)C(=O)N2)CCN2CCNC(=O)c4cccc(c4O)C(=O)NCCN(CCNC(=O)c4cccc(c4O)C(=O)NCC2)CC3)ccc1-c1c2ccc(=O)cc-2oc2cc(O)ccc12 (stereo not drawn) [Compound 4a]
- long lifetime corresponding to excitation of BH22IAM and energy transfer to fluorescein [1]: 520 nsec and 524 nsec
- absorption maxima ([2]; 340 nm assigned to BH22IAM, 490 nm to fluorescein): 340 nm and 490 nm
- emission wavelength / emission maxima ([2]; excitation at BH22IAM absorption (~340 nm)): 520 nm
